Test results from ChEMBL document CHEMBL4602605, “Fluoroquinolones structural and medicinal developments (2013-2018): Where are we now?” (Bioorg Med Chem, 2019).
In brackets after ≈: the same amount, converted by molar mass.

Tests used:
Type in all cases: functional
[1] = test system: Staphylococcus aureus; test: Antimicrobial activity against methicillin-resistant Staphylococcus aureus ATCC 25923 by microdilution method
[2] = test system: Escherichia coli; test: Antimicrobial activity against Escherichia coli ATCC […] by microdilution method
[3] = test system: Escherichia coli; test: Antimicrobial activity against multidrug resistance Escherichia coli ATCC 35218 by microdilution method
[4] = test system: Staphylococcus aureus; test: Antimicrobial activity against Staphylococcus aureus ATCC 29213 by microdilution method
[5] = test system: Escherichia coli; test: Antimicrobial activity against Escherichia coli ATCC 9637 incubated for 24 hrs by CLSI-based broth microdilution method; conditions: W ATCC 9637, 24 h
[6] = test system: Pseudomonas aeruginosa; test: Antimicrobial activity against Pseudomonas aeruginosa ATCC BAA-427 incubated for 24 hrs by CLSI-based broth microdilution method; conditions: ATCC BAA-427, 24 h
[7] = test system: Staphylococcus aureus; test: Antimicrobial activity against methicillin-resistant Staphylococcus aureus ATCC 700699 incubated for 24 hrs by CLSI-based broth microdilution method; conditions: ATCC 700699, 24 h
[8] = test system: Staphylococcus aureus; test: Antimicrobial activity against gentamicin-resistant Staphylococcus aureus ATCC 33592 incubated for 24 hrs by CLSI-based broth microdilution method; conditions: ATCC 33592, 24 h
[9] = test system: Klebsiella pneumoniae; test: Antimicrobial activity against Klebsiella pneumoniae ATCC 27736 incubated for 24 hrs by CLSI-based broth microdilution method; conditions: ATCC 27736, 24 h
[10] = test system: Staphylococcus aureus; test: Antimicrobial activity against Staphylococcus aureus ATCC 29213 incubated for 24 hrs by CLSI-based dilution method; conditions: ATCC 29213, 24 h
[11] = test system: Staphylococcus aureus; test: Antimicrobial activity against Staphylococcus aureus ATCC 25923 incubated for 24 hrs by CLSI-based dilution method; conditions: ATCC 25923, 24 h
[12] = test system: Enterococcus faecalis; test: Antimicrobial activity against Enterococcus faecalis ATCC 29212 incubated for 24 hrs by serial dilution method; conditions: ATCC 29212, 24 h
[13] = test system: Staphylococcus aureus; test: Antimicrobial activity against methicillin-susceptible Staphylococcus aureus ATCC 29213 incubated for 24 hrs by serial dilution method; conditions: ATCC 29213, 24 h
[14] = test system: Staphylococcus aureus; test: Antimicrobial activity against methicillin-resistant Staphylococcus aureus ATCC 33591 incubated for 24 hrs by serial dilution method; conditions: ATCC 33591, 24 h
[15] = test system: Escherichia coli; test: Antimicrobial activity against Escherichia coli ATCC 35218 incubated for 24 hrs by serial dilution method; conditions: ATCC 35218, 24 h
[16] = test system: Klebsiella pneumoniae; test: Antimicrobial activity against Klebsiella pneumoniae ATCC 35657 incubated for 24 hrs by serial dilution method; conditions: ATCC 35657, 24 h
[17] = test system: Moraxella catarrhalis; test: Antimicrobial activity against Moraxella catarrhalis ATCC 25238 incubated for 24 hrs by serial dilution method; conditions: ATCC 25238, 24 h
[18] = test system: A549; test: Growth inhibition of human A549 cells at 10 uM incubated for 48 hrs by MTT assay relative to control; conditions: A549, 48 h, read-out: GI
[19] = test system: HCT-116; test: Growth inhibition of human HCT116 cells at 10 uM incubated for 48 hrs by MTT assay relative to control; conditions: HCT-116, 48 h, read-out: GI
[20] = test system: HeLa; test: Growth inhibition of human HeLa cells at 10 uM incubated for 48 hrs by MTT assay relative to control; conditions: read-out: GI
[21] = test system: PANC-1; test: Growth inhibition of human PANC1 cells at 10 uM incubated for 48 hrs by MTT assay; conditions: PANC-1, 48 h, read-out: GI
[22] = test system: Mycobacterium tuberculosis; test: Antimicrobial activity against Mycobacterium tuberculosis H37Rv incubated for 10 days by microbroth dilution method; conditions: 240 h
[23] = test system: Pseudomonas aeruginosa; test: Antimicrobial activity against Pseudomonas aeruginosa ATCC 43288 incubated for 18 to 24 hrs by microbroth dilution method
[24] = test system: Yersinia pseudotuberculosis; test: Antimicrobial activity against Yersinia pseudotuberculosis ATCC 911 incubated for 18 to 24 hrs by microbroth dilution method
[25] = test system: Staphylococcus aureus; test: Antimicrobial activity against Staphylococcus aureus ATCC 25923 incubated for 18 to 24 hrs by microbroth dilution method
[26] = test system: Enterococcus faecalis; test: Antimicrobial activity against Enterococcus faecalis ATCC 29212 incubated for 18 to 24 hrs by microbroth dilution method
[27] = test system: Bacillus cereus; test: Antimicrobial activity against Bacillus cereus 709 Roma incubated for 18 to 24 hrs by microbroth dilution method
[28] = test system: Mycolicibacterium smegmatis; test: Antimicrobial activity against Mycobacterium smegmatis ATCC 607 incubated for 48 to 72 hrs by microbroth dilution method
[29] = test system: Staphylococcus aureus; test: Antimicrobial activity against methicillin-susceptible Staphylococcus aureus ATCC 29213 incubated for 16 hrs by CLSI method; conditions: ATCC 29213, 16 h
[30] = test system: Staphylococcus aureus; test: Antimicrobial activity against healthcare-acquired methicillin-resistant Staphylococcus aureus NRS70 incubated for 16 hrs by CLSI method; conditions: NRS70, 16 h

## O=C(O)c1cn(C2CC2)c2c(cc(F)c3nn(CN(N4CCCCC4)N4CCCCC4)c(=O)n32)c1=O
[1]
  MIC: ≤ 8 µg/mL
[2]
  MIC: ≤ 1 µg/mL
[3]
  MIC: ≤ 4 µg/mL
[4]
  MIC: ≤ 1 µg/mL

## CC1CNCCN1N(Cn1nc2c(F)cc3c(=O)c(C(=O)O)cn(C4CC4)c3n2c1=O)N1CCNCC1C (stereo not given)
[1]
  MIC: ≤ 1 µg/mL
[2]
  MIC: ≤ 0.25 µg/mL
[3]
  MIC: ≤ 2 µg/mL
[4]
  MIC: ≤ 0.5 µg/mL

## CCn1cc(C(=O)O)c(=O)c2cc(F)c(-n3cc(CO[C@H]4O[C@H](COC(C)=O)[C@H](OC(C)=O)[C@H](OC(C)=O)[C@H]4OC(C)=O)nn3)c(F)c21
[5]
  MIC: 12.5 µg/mL (≈ 18.4 µM)
[6]
  MIC: > 50 µg/mL
[7]
  MIC: > 50 µg/mL
[8]
  MIC: > 50 µg/mL
[9]
  MIC: > 50 µg/mL
[10]
  MIC: > 50 µg/mL
[11]
  MIC: > 50 µg/mL

## CCn1cc(C(=O)O)c(=O)c2cc(F)c(-n3cc(CO[C@H]4O[C@@H](C)[C@H](OC(C)=O)[C@@H](OC(C)=O)[C@H]4OC(C)=O)nn3)c(F)c21
[1]
  MIC: ≤ 16 µg/mL
[2]
  MIC: ≤ 4 µg/mL
[3]
  MIC: ≤ 16 µg/mL
[4]
  MIC: ≤ 4 µg/mL

## O=C(NO)c1cn(C2CC2)c2cc(-n3cc(CN4CCOCC4)nn3)c(F)cc2c1=O
[12]
  MIC: > 64 µg/mL
[13]
  MIC: > 64 µg/mL
[14]
  MIC: > 64 µg/mL
[15]
  MIC: 8 µg/mL (≈ 18.7 µM)
[16]
  MIC: 4 µg/mL (≈ 9.34 µM)
[17]
  MIC: 8 µg/mL (≈ 18.7 µM)
[18]
  inhibition of growth at 10 µM: 15%
[19]
  inhibition of growth at 10 µM: 15%
[20]
  inhibition of growth at 10 µM: 20%
[21]
  inhibition of growth at 10 µM: 13%

## CCn1cc(C(=O)O)c(=O)c2cc(F)c(-c3cc4ccccc4oc3=O)cc21
[22]
  MIC: 12.5 µg/mL (≈ 33 µM)

## CCN1CCN(N(Cn2nc3c(F)cc4c(=O)c(C(=O)O)cn(C5CC5)c4n3c2=O)N2CCN(CC)CC2)CC1
[1]
  MIC: ≤ 0.5 µg/mL
[2]
  MIC: ≤ 0.125 µg/mL
[3]
  MIC: ≤ 0.25 µg/mL
[4]
  MIC: ≤ 0.125 µg/mL

## CCO/N=C1/CN(CCCn2cc(CN3CCCC4CN(c5c(F)cc6c(=O)c(C(=O)O)cn(C7CC7)c6c5OC)CC43)nn2)c2ccc(F)cc21 (stereo not given)
[22]
  MIC: 12.5 µg/mL (≈ 17.4 µM)

## CCn1cc(C(=O)O)c(=O)c2cc(F)c(-n3cc(CO[C@H]4OC[C@@H](OC(C)=O)[C@H](OC(C)=O)[C@H]4OC(C)=O)nn3)c(F)c21
[5]
  MIC: 12.5 µg/mL (≈ 20.5 µM)
[6]
  MIC: > 50 µg/mL
[7]
  MIC: > 50 µg/mL
[8]
  MIC: 12.5 µg/mL (≈ 20.5 µM)
[9]
  MIC: 25 µg/mL (≈ 41.1 µM)
[10]
  MIC: 12.5 µg/mL (≈ 20.5 µM)
[11]
  MIC: 12.5 µg/mL (≈ 20.5 µM)

## CC(C)NCc1cn(-c2cc3c(cc2F)c(=O)c(C(=O)NO)cn3C2CC2)nn1
[12]
  MIC: > 64 µg/mL
[13]
  MIC: > 64 µg/mL
[14]
  MIC: > 64 µg/mL
[15]
  MIC: > 64 µg/mL
[16]
  MIC: > 64 µg/mL
[17]
  MIC: > 64 µg/mL
[18]
  inhibition of growth at 10 µM: 35%
[19]
  inhibition of growth at 10 µM: 30%
[20]
  inhibition of growth at 10 µM: 30%
[21]
  inhibition of growth at 10 µM: 15%

## CN(C)N(Cn1nc2c(F)cc3c(=O)c(C(=O)O)cn(C4CC4)c3n2c1=O)N(C)C
[1]
  MIC: ≤ 8 µg/mL
[2]
  MIC: ≤ 1 µg/mL
[3]
  MIC: ≤ 4 µg/mL
[4]
  MIC: ≤ 2 µg/mL

## CCn1cc(C(=O)O)c(=O)c2cc(F)c(-n3cc(CO[C@H]4O[C@H](COC(C)=O)[C@@H](OC(C)=O)[C@H](OC(C)=O)[C@H]4NC(C)=O)nn3)c(F)c21
[5]
  MIC: 12.5 µg/mL (≈ 18.4 µM)
[6]
  MIC: > 50 µg/mL
[7]
  MIC: > 50 µg/mL
[8]
  MIC: 6.25 µg/mL (≈ 9.2 µM)
[9]
  MIC: 6.25 µg/mL (≈ 9.2 µM)
[10]
  MIC: 6.25 µg/mL (≈ 9.2 µM)
[11]
  MIC: 6.25 µg/mL (≈ 9.2 µM)

## CCn1cc(C(=O)O)c(=O)c2cc(F)c(N3CCN(Cn4nc(CN5CCN(c6ccc([N+](=O)[O-])cc6)CC5)n(-c5ccccc5)c4=S)CC3)cc21
[23]
  MIC: 0.03 to 0.24 µg/mL (≈ 0.0412 to 0.33 µM)
[24]
  MIC: 0.06 µg/mL (≈ 0.0824 µM)
[25]
  MIC: 0.24 to 0.48 µg/mL (≈ 0.33 to 0.66 µM)
[26]
  MIC: 0.122 to 0.25 µg/mL (≈ 0.168 to 0.343 µM)
[27]
  MIC: 0.12 to 0.24 µg/mL (≈ 0.165 to 0.33 µM)
[28]
  MIC: 0.244 to 0.25 µg/mL (≈ 0.335 to 0.343 µM)

## O=C(O)c1cn(C2CC2)c2c(cc(F)c3nn(CN(N4CCOCC4)N4CCOCC4)c(=O)n32)c1=O
[1]
  MIC: ≤ 2 µg/mL
[2]
  MIC: ≤ 0.25 µg/mL
[3]
  MIC: ≤ 2 µg/mL
[4]
  MIC: ≤ 0.25 µg/mL

## COc1c(N2CCOCC2)c(F)cc2c(=O)c(C(=O)Nc3nccs3)cn(C3CC3)c12
[29]
  MIC90: > 201 µg/mL
[30]
  MIC90: > 201 µg/mL
